Assay results: US11236086B2, “Substituted pyrrolopyridines as inhibitors of activin receptor-like kinase” (BLUEPRINT MEDICINES CORPORATION, priority 2017, dated 2022)

These compounds were tested against T1, ALK2R206H (mutant ALK2, N-terminally tagged with GST) (Homo sapiens, UniProt Q04771, R206H) (assay: ALK binding assay (LANTHASCREEN TR-FRET competitive binding, displacement of Kinase Tracer 178)). Conditions: read-out: Binding Assay (IC50 class).
T1 construct: purchased Carna Bioscience or ThermoFisher 09-148 or PV6232
T1 sequence (Q04771 21-509 R206H): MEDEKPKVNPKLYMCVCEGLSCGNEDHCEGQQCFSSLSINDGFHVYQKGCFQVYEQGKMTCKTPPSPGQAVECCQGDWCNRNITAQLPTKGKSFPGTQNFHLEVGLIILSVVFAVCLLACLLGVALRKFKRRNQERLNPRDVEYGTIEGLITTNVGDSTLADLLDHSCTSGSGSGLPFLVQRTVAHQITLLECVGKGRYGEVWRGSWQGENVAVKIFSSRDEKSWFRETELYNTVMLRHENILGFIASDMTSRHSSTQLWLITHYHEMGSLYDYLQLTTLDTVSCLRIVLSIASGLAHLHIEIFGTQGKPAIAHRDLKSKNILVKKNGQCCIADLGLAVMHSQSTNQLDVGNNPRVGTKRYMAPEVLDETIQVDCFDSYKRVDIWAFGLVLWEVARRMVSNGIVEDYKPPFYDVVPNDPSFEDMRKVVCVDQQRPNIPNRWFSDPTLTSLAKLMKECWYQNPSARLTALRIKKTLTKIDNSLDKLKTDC
How it was run: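 GST-tagged ALK2 R206H (2-5 nM) mixed with Eu-anti-GST antibody (4-10 nM), Kinase Tracer 178 (50 nM, near its Kd) and compound titration (1% DMSO) in Kinase Buffer A, 30 min at room temperature. Tracer displacement read as TR-FRET ratio, normalized to controls; IC50 from 4-parameter fit.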

IC50 | Structure (SMILES)
≤ 10 nM | Cn1cc(-c2cc3c(N4CCN(C(=O)OC5CCOCC5)CC4)ccnc3[nH]2)cn1 [Compound 234]
≤ 10 nM | Cn1cnc(-c2cc3c(N4CCN(C(=O)O[C@@H]5CCC5(F)F)CC4)ccnc3[nH]2)c1 [Compound 264]
≤ 10 nM | CC(C)N1CCC(c2ccc(-c3cc4c(N5CCN(C(=O)OC6COC6)CC5)ccnc4[nH]3)cc2)CC1 [Compound 467]
≤ 10 nM | Cn1cc(-c2cc3c(N4CCN(C(=O)O[C@@H]5CC(F)(F)C5(F)F)CC4)ccnc3[nH]2)cn1 [Compound 398]
≤ 10 nM | CCCOC(=O)N1CCN(c2ccnc3[nH]c(-c4cnn(C)c4)c(Cl)c23)CC1 [Compound 187]
≤ 10 nM | N#Cc1c(-c2cn(C(F)F)cn2)[nH]c2nccc(N3CCN(C(=O)OC4COC4)CC3)c12 [Compound 375]
≤ 10 nM | Cn1cc(-c2cc3c(N4CCN(C(=O)O[C@@H]5CCC5(F)F)CC4)ccnc3[nH]2)cn1 [Compound 263]
≤ 10 nM | CC(C)n1cnc(-c2cc3c(N4CCN(C(=O)OC5COC5)CC4)ccnc3[nH]2)c1 [Compound 231]
≤ 10 nM | O=C(C1CC1)N1CCN(c2ccnc3[nH]c(-c4ccc(N5CCNC6(COC6)C5)cc4)cc23)CC1 [Compound 437]
≤ 10 nM | Cc1nc(-c2cc3c(N4CCN(C(=O)OCC(F)F)CC4)ccnc3[nH]2)cs1 [Compound 212]
≤ 10 nM | Cc1nc(-c2cc3c(N4CCN(C(=O)OC5COC5)CC4)ccnc3[nH]2)cs1 [Compound 170]
≤ 10 nM | CCC(=O)N1CCN(c2ccnc3[nH]c(-c4cnn(C)c4)cc23)CC1 [Compound 2]
≤ 10 nM | Cn1ncc(-c2cc3c(N4CCN(C(=O)OC5COC5)CC4)ccnc3[nH]2)c1C(F)F [Compound 336]
≤ 10 nM | O=C(OC1COC1)N1CCN(c2ccnc3[nH]c(-c4cnn(C(F)F)c4)cc23)CC1 [Compound 279]
≤ 10 nM | CCOC(=O)N1CCN(c2ccnc3[nH]c(-c4cn(C)nc4C#N)cc23)CC1 [Compound 69]
≤ 10 nM | Cn1cc(-c2cc3c(N4CCN(C(=O)OC5(C)COC5)CC4)ccnc3[nH]2)cn1 [Compound 152]
≤ 10 nM | CCOC(=O)N1CCN(c2ccnc3[nH]c(-c4cn(C)nc4Cl)cc23)CC1 [Compound 122]
≤ 10 nM | O=C(c1ccc(-c2cc3c(N4CCN(C(=O)C5CC5)CC4)ccnc3[nH]2)cc1)N1CCC1 [Compound 324]
≤ 10 nM | CC(C)(C)c1ccc(-c2cc3c(N4CCN(C(=O)C5CC5)CC4)ccnc3[nH]2)cc1 [Compound 185]
≤ 10 nM | CC#Cc1c(-c2cn(C)c(C)n2)[nH]c2nccc(N3CCN(C(=O)OC4COC4)CC3)c12 [Compound 347]
≤ 10 nM | CC(C)(O)c1ccc(-c2cc3c(N4CCN(C(=O)C5CC5)CC4)ccnc3[nH]2)cc1 [Compound 195]
≤ 10 nM | Cc1csc(-c2cc3c(N4CCN(C(=O)OC5COC5)CC4)ccnc3[nH]2)n1 [Compound 173]
≤ 10 nM | CCOC(=O)N1CCN(c2ccnc3[nH]c(-c4nc(C)c(C)s4)cc23)CC1 [Compound 114]

These compounds were tested against T2, human ALK2 R206H (Homo sapiens, UniProt Q04771, R206H) (assay: Cell-based ALK2-R206H cell activity assay (Smad1-Ser463/Ser465 phosphorylation by AlphaLISA in HEK293-ALK2-R206H cells)). Conditions: phospho-Smad1 AlphaLISA, read-out: Cell Line (Cell Assay, IC50 class).
T2 construct: expressed in transfected cells; host or cells: HEK293 (ATCC CRL1573), lentivirus transduction, blasticidin selection
T2 sequence (Q04771 21-509 R206H): T1 sequence (Q04771 21-509 R206H)
How it was run: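 HEK293 stable line expressing human ALK2 R206H with C-terminal FLAG, plated overnight in serum-free medium. Cells were treated 2-3 h with compound over 10 3-fold doses, top 10 μM or 1 μM, in duplicate. Phospho-Smad1 Ser463/465 in lysate was read by AlphaLISA; IC50 was normalised to DMSO (0%) and 1 μM LDN193189 (100%).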

IC50 | Structure (SMILES)
100 to 500 nM | Cn1cc(-c2cc3c(N4CCN(C(=O)OC5CCOCC5)CC4)ccnc3[nH]2)cn1 [Compound 234]
≤ 100 nM | Cn1cnc(-c2cc3c(N4CCN(C(=O)O[C@@H]5CCC5(F)F)CC4)ccnc3[nH]2)c1 [Compound 264]
≤ 100 nM | CC(C)N1CCC(c2ccc(-c3cc4c(N5CCN(C(=O)OC6COC6)CC5)ccnc4[nH]3)cc2)CC1 [Compound 467]
≤ 100 nM | Cn1cc(-c2cc3c(N4CCN(C(=O)O[C@@H]5CC(F)(F)C5(F)F)CC4)ccnc3[nH]2)cn1 [Compound 398]
≤ 100 nM | CCCOC(=O)N1CCN(c2ccnc3[nH]c(-c4cnn(C)c4)c(Cl)c23)CC1 [Compound 187]
≤ 100 nM | N#Cc1c(-c2cn(C(F)F)cn2)[nH]c2nccc(N3CCN(C(=O)OC4COC4)CC3)c12 [Compound 375]
≤ 100 nM | Cn1cc(-c2cc3c(N4CCN(C(=O)O[C@@H]5CCC5(F)F)CC4)ccnc3[nH]2)cn1 [Compound 263]
≤ 100 nM | CC(C)n1cnc(-c2cc3c(N4CCN(C(=O)OC5COC5)CC4)ccnc3[nH]2)c1 [Compound 231]
≤ 100 nM | O=C(C1CC1)N1CCN(c2ccnc3[nH]c(-c4ccc(N5CCNC6(COC6)C5)cc4)cc23)CC1 [Compound 437]
≤ 100 nM | Cc1nc(-c2cc3c(N4CCN(C(=O)OCC(F)F)CC4)ccnc3[nH]2)cs1 [Compound 212]
≤ 100 nM | Cc1nc(-c2cc3c(N4CCN(C(=O)OC5COC5)CC4)ccnc3[nH]2)cs1 [Compound 170]
> 500 nM | CCC(=O)N1CCN(c2ccnc3[nH]c(-c4cnn(C)c4)cc23)CC1 [Compound 2]
100 to 500 nM | Cn1ncc(-c2cc3c(N4CCN(C(=O)OC5COC5)CC4)ccnc3[nH]2)c1C(F)F [Compound 336]
≤ 100 nM | O=C(OC1COC1)N1CCN(c2ccnc3[nH]c(-c4cnn(C(F)F)c4)cc23)CC1 [Compound 279]
≤ 100 nM | CCOC(=O)N1CCN(c2ccnc3[nH]c(-c4cn(C)nc4C#N)cc23)CC1 [Compound 69]
100 to 500 nM | Cn1cc(-c2cc3c(N4CCN(C(=O)OC5(C)COC5)CC4)ccnc3[nH]2)cn1 [Compound 152]
100 to 500 nM | CCOC(=O)N1CCN(c2ccnc3[nH]c(-c4cn(C)nc4Cl)cc23)CC1 [Compound 122]
100 to 500 nM | O=C(c1ccc(-c2cc3c(N4CCN(C(=O)C5CC5)CC4)ccnc3[nH]2)cc1)N1CCC1 [Compound 324]
100 to 500 nM | CC(C)(C)c1ccc(-c2cc3c(N4CCN(C(=O)C5CC5)CC4)ccnc3[nH]2)cc1 [Compound 185]
≤ 100 nM | CC#Cc1c(-c2cn(C)c(C)n2)[nH]c2nccc(N3CCN(C(=O)OC4COC4)CC3)c12 [Compound 347]
≤ 100 nM | CC(C)(O)c1ccc(-c2cc3c(N4CCN(C(=O)C5CC5)CC4)ccnc3[nH]2)cc1 [Compound 195]
100 to 500 nM | Cc1csc(-c2cc3c(N4CCN(C(=O)OC5COC5)CC4)ccnc3[nH]2)n1 [Compound 173]
≤ 100 nM | CCOC(=O)N1CCN(c2ccnc3[nH]c(-c4nc(C)c(C)s4)cc23)CC1 [Compound 114]
